Results on four molecules are retold here after patent publication US7297535B2, “Use of the human LRP/MVP promotor for a vector that can be induced by therapy” (Max-Delbrück-Centrum Für Molekulare Medizin, priority 2000, dated 2007).

Molecules are shown by their SMILES.

For this test, the system named is LRP/MVP promoter. Put plainly: Inducibility of LRP/MVP promoter by cytostatics (CAT expression). It counts as cell-based, human. To be noted: for inducibility of the human LRP/MVP gene promoter by therapy-relevant factors: general statement, no details given.

For `O=c1[nH]cc(F)c(=O)[nH]1` [5-fluoruracil], the “inducibility of the human LRP/MVP gene promoter by therapy-relevant factors” value is “inductors”. Under “24 h after cytostatic administration, FIG. 2”, the “induction of LRP/MVP-promoter-mediated CAT expression” value is reported as “induced”.

As for `COc1cccc2c1C(=O)c1c(O)c3c(c(O)c1C2=O)C[C@@](O)(C(=O)CO)C[C@@H]3O[C@H]1C[C@H](N)[C@H](O)[C@H](C)O1` [adriamycin], the “inducibility of the human LRP/MVP gene promoter by therapy-relevant factors” value is on record as “inductors”.

In the case of `N.N.[Cl][Pt][Cl]` [cisplatin], the “inducibility of the human LRP/MVP gene promoter by therapy-relevant factors” value is given as “inductors”.

For `CC[C@]1(O)C[C@H]2CN(CCc3c([nH]c4ccccc34)[C@@](C(=O)OC)(c3cc4c(cc3OC)N(C=O)[C@H]3[C@@](O)(C(=O)OC)[C@H](OC(C)=O)[C@]5(CC)C=CCN6CC[C@]43[C@@H]65)C2)C1` [vincristin], the “inducibility of the human LRP/MVP gene promoter by therapy-relevant factors” value is on record as “inductors”.
